Laboratory results from patent US11104661B1, “Inhibiting human integrin (α-4) (β-7)” (Morphic Therapeutic, Inc., priority 2019, dated 2021).
pIC50: −log10 of the molar value.

Target: T1, integrin α4β7 (Homo sapiens, UniProt P13612+P26010)
T1 sequence (P13612 35-977 limits assumed): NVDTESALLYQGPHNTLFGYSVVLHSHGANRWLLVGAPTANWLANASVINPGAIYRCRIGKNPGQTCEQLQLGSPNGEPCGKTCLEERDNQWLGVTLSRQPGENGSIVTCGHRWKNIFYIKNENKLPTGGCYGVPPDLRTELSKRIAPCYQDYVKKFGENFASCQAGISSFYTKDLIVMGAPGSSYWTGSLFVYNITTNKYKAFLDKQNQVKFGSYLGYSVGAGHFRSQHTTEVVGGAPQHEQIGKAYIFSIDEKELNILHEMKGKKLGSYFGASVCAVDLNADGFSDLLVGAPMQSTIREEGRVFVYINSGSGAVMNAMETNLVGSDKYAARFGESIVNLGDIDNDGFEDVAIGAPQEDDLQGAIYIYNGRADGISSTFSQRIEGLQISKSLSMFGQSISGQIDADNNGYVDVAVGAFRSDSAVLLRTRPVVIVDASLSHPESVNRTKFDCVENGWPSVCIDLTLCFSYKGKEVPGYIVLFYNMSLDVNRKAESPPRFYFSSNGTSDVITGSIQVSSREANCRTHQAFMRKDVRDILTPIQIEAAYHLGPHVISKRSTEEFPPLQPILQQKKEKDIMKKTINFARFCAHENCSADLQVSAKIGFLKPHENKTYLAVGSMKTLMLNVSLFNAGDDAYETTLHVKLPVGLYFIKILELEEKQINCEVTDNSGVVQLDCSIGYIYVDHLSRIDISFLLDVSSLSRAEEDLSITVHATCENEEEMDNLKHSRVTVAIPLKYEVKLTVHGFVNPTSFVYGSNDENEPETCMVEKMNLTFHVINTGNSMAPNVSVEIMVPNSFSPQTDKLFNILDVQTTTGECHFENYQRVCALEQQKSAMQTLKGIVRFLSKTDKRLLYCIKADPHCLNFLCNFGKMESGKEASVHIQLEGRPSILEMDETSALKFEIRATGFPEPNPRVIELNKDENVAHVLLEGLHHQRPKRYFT
T1 sequence (P26010 20-723 limits assumed): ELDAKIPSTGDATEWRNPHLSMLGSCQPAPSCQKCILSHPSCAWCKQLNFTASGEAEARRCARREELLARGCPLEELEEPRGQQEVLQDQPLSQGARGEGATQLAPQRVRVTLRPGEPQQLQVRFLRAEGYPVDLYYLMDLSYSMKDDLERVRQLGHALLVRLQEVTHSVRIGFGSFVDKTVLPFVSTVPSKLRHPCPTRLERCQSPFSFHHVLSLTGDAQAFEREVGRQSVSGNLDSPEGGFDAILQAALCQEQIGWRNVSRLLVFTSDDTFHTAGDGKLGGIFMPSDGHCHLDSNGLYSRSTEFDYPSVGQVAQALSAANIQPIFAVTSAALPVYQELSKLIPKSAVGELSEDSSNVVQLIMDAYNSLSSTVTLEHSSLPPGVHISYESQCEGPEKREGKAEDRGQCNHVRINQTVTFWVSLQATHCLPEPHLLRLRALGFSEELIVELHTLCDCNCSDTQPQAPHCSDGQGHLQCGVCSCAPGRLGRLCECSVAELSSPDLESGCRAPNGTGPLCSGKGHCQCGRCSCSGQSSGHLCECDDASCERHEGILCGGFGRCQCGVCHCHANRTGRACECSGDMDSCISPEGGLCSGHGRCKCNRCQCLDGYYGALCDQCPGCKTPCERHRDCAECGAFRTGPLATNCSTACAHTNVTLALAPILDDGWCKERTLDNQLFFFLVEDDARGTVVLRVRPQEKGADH
Assay: Fluorescence polarization (FP) assay for α4β7 binding (Example 5)
Conditions: competition with fluorescein-labeled peptide, 6.5 nM integrin α4β7, 2 mM manganese chloride
Protocol: Compounds of Formula (I) were evaluated using a fluorescent polarization (FP) assay. FP assays are used to evaluate potency of compounds on purified protein. The FP assays consists of measuring purified integrin αβ heterodimer ecto domains or headpiece binding to surrogate or truncated ligands.
Three in vitro assays were used to examine the α4β7 mechanistic process used by cells: 1) ligand:receptor affinity, 2) the avidity of those interactions on a cell's surface, and 3) how those interactions fare under an imposing force. In Example 5, a Fluorescence Polarization (FP) assay is used to measure compound activity through binding competition with the fluorescein-labeled peptide. In Example 6, the potency of compounds against α4β7 is measured in the cell-based ligand binding assay (LBA), using RPMI 8866 cells incubated with the compound samples in competition with soluble MAdCAM-1 ligand. In Example 7, activity of compounds is evaluated in a cell adhesion assay that mechanistically tests what occurs in vivo when trafficking cells utilize α4β7 to adhere to MAdCAM-1 expressing HEVs of the gut during the extravasation process. In the cell adhesion assay of Example 7, a MAdCAMI1-(Fc) is coated on plastic, and α4β7 expressing cells (RPMI-8866) are allowed to adhere to the coated surface in the presence of the test compounds. Next, the force of washing with buffer is applied to cells thereby testing the strength of that adhesion. Unattached cells are removed and the remaining adherent cells are quantified.
Fluorescence Polarization (FP) assays were used to measure compound activity through binding competition with the fluorescein-labeled peptide […]{Lys(FITC)}. In the assay, 6.5 nM of integrin α4β7 was incubated with the test compound in 2 mM manganese chloride, 0.1 mM calcium chloride, 20 mM HEPES buffer at pH 7.3, 150 mM sodium chloride, 0.01% Triton X-100, 2% DMSO, and 3 nM of the fluorescein-labeled peptide. Running the assays in 384-well plates, the integrin protein was pre-incubated with the test compounds for 15 minutes at 22° C. before the fluorescein-labeled peptide was added. After the fluorescein-labeled peptide was added, the assay was incubated at 22° C. for 1 hour and fluorescence polarization was measured. IC50 values were determined by nonlinear regression, four-parameter curve fitting.

Cc1cccc(C)c1-c1cccc([C@H](CC(=O)O)NC(=O)[C@H](CC(C)C)n2cc(CCN(C)C)ccc2=O)c1
pIC50 (Table 4 comparative compounds): ≥ 8.00

Cc1cccc(C)c1-c1cccc([C@H](CC(=O)O)NC(=O)[C@H](CC(C)C)n2ccc(CCN(C)C)cc2=O)c1
pIC50 (Table 4 comparative compounds): ≥ 8.00

Cc1cccc(C)c1-c1cccc([C@H](CC(=O)O)NC(=O)[C@H](CC(C)C)n2cccc(CCN(C)C)c2=O)c1
pIC50 (Table 4 comparative compounds): ≥ 8.00

Cc1cccc(C)c1-c1cccc([C@H](CC(=O)O)NC(=O)[C@H](CC(C)C)n2cc(CN3CC[C@@H](F)C3)ccc2=O)c1
pIC50 (Table 4 comparative compounds): ≥ 8.00

Cc1cccc(C)c1-c1cncc([C@H](CC(=O)O)NC(=O)[C@H](CC(C)C)n2ccc(C(F)(F)F)cc2=O)c1
pIC50 (Table 4 comparative compounds): ≥ 8.00

Cc1ccn([C@@H](CC(C)C)C(=O)N[C@@H](CC(=O)O)c2cncc(-c3c(C)cccc3C)c2)c(=O)c1
pIC50 (Table 4 comparative compounds): ≥ 8.00

Cc1cccc(C)c1-c1cncc([C@H](CC(=O)O)NC(=O)C(CC(C)C)n2cc(C(F)(F)F)ccc2=O)c1 (some centres unmarked)
pIC50 (Table 4 comparative compounds): ≥ 8.00

Cc1cccc(C)c1-c1cncc([C@H](CC(=O)O)NC(=O)[C@H](CC(C)C)n2cc(CN3CC(F)C3)ccc2=O)c1
pIC50 (Table 4 comparative compounds): ≥ 8.00

Cc1cccc(C)c1-c1cncc([C@H](CC(=O)O)NC(=O)[C@H](CC(C)C)N2CC[C@@H](C(F)(F)F)CC2=O)c1
pIC50 (Table 4 comparative compounds): ≥ 8.00

CC(C)C[C@@H](C(=O)N[C@@H](CC(=O)O)c1ccc(-c2ccc(F)cc2)cc1)n1cc(CCN(C)C)c(C(F)(F)F)cc1=O
pIC50 (Table 4 comparative compounds): ≥ 8.00

CC(C)C[C@@H](C(=O)N[C@@H](CC(=O)O)c1ccc(-c2ccc(F)cc2)cc1)n1cc(CCN2CC(F)C2)cc(F)c1=O
pIC50 (Table 4 comparative compounds): ≥ 8.00

CC(C)C[C@@H](C(=O)N[C@@H](CC(=O)O)c1ccc(-c2ccccc2)cc1)n1cc(CCN2CC(F)C2)cc(F)c1=O
pIC50 (Table 4 comparative compounds): ≥ 8.00

Cc1ccccc1-c1cccc([C@H](CC(=O)O)NC(=O)[C@H](CC(C)C)n2cccc(C)c2=O)c1
pIC50 (Table 4 comparative compounds): ≥ 8.00

CC(C)C[C@@H](C(=O)N[C@@H](CC(=O)O)c1ccc(-c2ccccc2)cc1)n1cc(CCN(C)C)c(C(F)(F)F)cc1=O
pIC50 (Table 4 comparative compounds): 6.30 to 8.00

Cc1ccccc1-c1cc([C@H](CC(=O)O)NC(=O)[C@H](CC(C)C)n2ccccc2=O)ccc1C
pIC50 (Table 4 comparative compounds): 6.30 to 8.00

Cc1ccccc1-c1cccc([C@H](CC(=O)O)NC(=O)[C@H](CC(C)C)n2ccncc2=O)c1
pIC50 (Table 4 comparative compounds): 6.30 to 8.00

COc1cccc(F)c1-c1cccc([C@H](CC(=O)O)NC(=O)[C@H](CC(C)C)n2cnc3ccccc3c2=O)c1
pIC50 (Table 4 comparative compounds): 6.30 to 8.00

Cc1ccccc1-c1cccc([C@H](CC(=O)O)NC(=O)[C@H](CC(C)C)n2ccccc2=O)c1
pIC50 (Table 4 comparative compounds): 6.30 to 8.00

Cc1ccccc1-c1cc([C@H](CC(=O)O)NC(=O)C(CC(C)C)n2ccccc2=O)ccn1 (some centres unmarked)
pIC50 (Table 4 comparative compounds): 6.30 to 8.00

COc1ccc([C@H](CC(=O)O)NC(=O)C(CC(C)C)n2ccccc2=O)cc1-c1ccccc1C (some centres unmarked)
pIC50 (Table 4 comparative compounds): 6.30 to 8.00

Cc1ccc([C@@H](C(=O)N[C@@H](CC(=O)O)c2cncc(-c3c(C)cccc3C)c2)N2CC(C)CCC2=O)cc1 (some centres unmarked)
pIC50 (Table 4 comparative compounds): ≥ 8.00

Cc1cccc(C)c1-c1cc([C@H](CC(=O)O)NC(=O)[C@H](CC(C)C)n2ccccc2=O)ccn1
pIC50 (Table 4 comparative compounds): 6.30 to 8.00

Cc1ccccc1-c1cc([C@H](CC(=O)O)NC(=O)C(CC(C)C)n2ccccc2=O)ccc1C#N (some centres unmarked)
pIC50 (Table 4 comparative compounds): ≥ 8.00

COC[C@@H](C(=O)N[C@@H](CC(=O)O)c1cccc(-c2c(C)cccc2C)c1)n1ccc(C)cc1=O
pIC50 (Table 4 comparative compounds): 6.30 to 8.00

Cc1cccc(C)c1-c1cncc([C@H](CC(=O)O)NC(=O)[C@H](CC(C)C)n2ccccc2=O)c1
pIC50 (Table 4 comparative compounds): ≥ 8.00

Cc1cc(C)c(-c2cc(C)c(F)c([C@H](CC(=O)O)NC(=O)C(CC(C)C)n3cc(CCN(C)C)c(C(F)(F)F)cc3=O)c2)c(C)c1 (single isomer, unassigned) [AC-P2]
pIC50 (Table 3): ≥ 8.00

Cc1cc(-c2c(C)ccc(F)c2C)cc([C@H](CC(=O)O)NC(=O)C(CC(C)C)n2cc(CCN3CCC3)c(C(F)(F)F)cc2=O)c1F (single isomer, unassigned) [AF-P2]
pIC50 (Table 3): ≥ 8.00

COc1ccc(C)c(-c2cc(C)c(F)c([C@H](CC(=O)O)NC(=O)C(CC(C)C)n3cc(CCN4CCC4)c(C(F)(F)F)cc3=O)c2)c1C (single isomer, unassigned) [AG-P2]
pIC50 (Table 3): ≥ 8.00

Cc1cc(-c2c(C)cccc2C)cc([C@H](CC(=O)O)NC(=O)C(CC(C)C)n2cc(CCN3CC[C@@H](F)C3)cc(F)c2=O)c1F (single isomer, unassigned) [AU-P2]
pIC50 (Table 3): ≥ 8.00

Cc1cc(-c2c(C)cccc2C)cc([C@H](CC(=O)O)NC(=O)C(CC(C)C)n2cc(CCN3CC(F)C3)cc(F)c2=O)c1F (single isomer, unassigned) [AV-P2]
pIC50 (Table 3): ≥ 8.00

Cc1cccc(C)c1-c1cc([C@H](CC(=O)O)NC(=O)C(CC(C)C)n2cc(CCN3CCC3)c(C(F)(F)F)cc2=O)c(F)c(C(F)(F)F)c1 (single isomer, unassigned) [G-P2]
pIC50 (Table 3): ≥ 8.00

Cc1cccc(C)c1-c1cccc([C@H](CC(=O)O)NC(=O)[C@H](CC(C)C)n2cc(CN3CC(F)C3)ccc2=O)c1 [drawing 572]
pIC50 (Table 4 comparative compounds): ≥ 8.00

Cc1cccc(C)c1-c1cccc([C@H](CC(=O)O)NC(=O)[C@H](CC(C)C)n2cc(CN3CC(F)C3)ccc2=O)c1 [drawing 577]
pIC50 (Table 4 comparative compounds): ≥ 8.00

Cc1cccc(C)c1-c1cccc([C@H](CC(=O)O)NC(=O)[C@H](CC(C)C)n2cc(CN3CC(F)C3)ccc2=O)c1 [drawing 585]
pIC50 (Table 4 comparative compounds): ≥ 8.00

Cc1cccc(C)c1-c1cccc([C@H](CC(=O)O)NC(=O)[C@H](CC(C)C)n2cc(CN3CC(F)C3)ccc2=O)c1 [drawing 589]
pIC50 (Table 4 comparative compounds): ≥ 8.00

Cc1cccc(C)c1-c1cccc([C@H](CC(=O)O)NC(=O)[C@H](CC(C)C)n2cc(CN3CC(F)C3)ccc2=O)c1 [drawing 594]
pIC50 (Table 4 comparative compounds): ≥ 8.00

Cc1cccc(C)c1-c1cccc([C@H](CC(=O)O)NC(=O)[C@H](CC(C)C)n2cc(CN3CC(F)C3)ccc2=O)c1 [drawing 599]
pIC50 (Table 4 comparative compounds): ≥ 8.00

Cc1cccc(C)c1-c1cccc([C@H](CC(=O)O)NC(=O)[C@H](CC(C)C)n2cc(CN3CC(F)C3)ccc2=O)c1 [drawing 604]
pIC50 (Table 4 comparative compounds): ≥ 8.00
